US10858344B2, “Hydantoin containing deoxyuridine triphosphatase inhibitors” (CV6 Therapeutics (NI) Limited, priority 2016, dated 2020)

Target: recombinant human deoxyuridine nucleotidohydrolase (dUTPase) (Homo sapiens (Human), UniProt P33316)
Assay: fluorescence-based dUTPase inhibition assay
Assay type: biochemical
Conditions: for % relative inhibition vs. positive control: mean over three concentrations, typically 100, 50 and 25 μmol/L, compared to in-run positive control
Description: Recombinant human deoxyuridine nucleotidohydrolase (dUTPase) is expressed and purified as described in Ladner R D, Carr S A, Huddleston M J, McNulty D E, Caradonna S J. J Biol Chem. 1996 Mar. 29; 271(13):7752-7. All drugs stocks are aliquoted and diluted as appropriate prior to use. The oligonucelotide primer, templates and fluorophore- and quencher-labeled detection probes are synthesized by Integrated DNA Technologies (Coralville, Iowa), subjected to polyacrylamide gel electrophoresis purification and reconstituted in Omnipur sterile nuclease-free water (EMD Chemicals USA, Gibbstown N.J.) at a stock concentration of 100 μmol/L. The two non-emissive (dark) quenching molecules incorporated into the detection probes include the Iowa black fluorescein quencher (IBFQ; absorption max 531 nm) and ZEN (non-abbreviation; absorption max 532 nm). The fluorescent label utilized is 6-FAM (5′-carboxyfluorescein; excitation max.=494 nm, emission max.=520 nm). Probes are further diluted to a working stock of 10 μmol/L and aliquoted to avoid repeated freeze/thaw cycles. AmpliTaq Gold DNA Polymerase, GeneAmp 10×PCR Buffer 2, MgCl2 and MicroAmp Optical 96-well Reaction Plates are purchased from Applied Biosystems (Carlsbad, Calif.). dNTPs are purchased individually at stock concentrations of 100 mmol/L from New England Biolabs at HPLC-certified >99% purity (Ipswich, Mass.).
Reaction mixtures contained primer, probe and template at an equimolar final concentration of 0.4 μmol/L. Magnesium chloride (MgCl2) is included at a final concentration of 2 mmol/L. Non-limiting dNTPs are included in the reaction mix in excess at a final concentration of 100 μmol/L (dUTP/dTTP is excluded). AmpliTaq Gold DNA polymerase is added at 0.875 U/reaction, 2.5 μl of 10×PCR buffer 2 added and nuclease-free ddH2O added to a final reaction volume of 25 μl. For dUTP inhibition analysis, the volume of ddH2O is further modified to accommodate an additional 1 μl of dUTPase (10 ng/μl) and 1 μl of inhibitor or DMSO control. Thermal profiling and fluorescence detection is performed using a customized thermal program on board a Roche Lightcycler LC480 Instrument II. For analysis of dNTPs, the thermal profile consisted of an 8 min 37° C. step followed by a 10 min 95° C. step to ‘hot-start’ the Taq polymerase and a primer extension time of up to 30 min at 60° C. Raw fluorescence spectra for 6-FAM is measured at specified time intervals to follow assay progression on board a Roche LightCycler 480 Software Version 1.5 and exported and analyzed in Microsoft Excel (Microsoft, Redmond Wash.) and Prism (GraphPad Software, La Jolla Calif.). Fluorescence values for blank reactions (limiting dNTP omitted) are subtracted to give normalized fluorescence units (NFU) to account for background fluorescence.
Test compounds are screened in a fluorescence-based assay. The assay employs a DNA polymerase-based approach utilizing an oligonucleotide template with 3 distinct regions: a 3′ primer binding region, a mid-template dUTP/thymidine triphosphate (TTP) detection region and a 5′ 6-[…] (FAM)-labeled probe binding region that incorporates a black hole quenching moiety. During the reaction, the probe and primer hybridize to the oligonucleotide template to form the template:primer:probe complex. When Taq polymerase binds to the primer in the TPP complex and dUTP is present, successful extension of the nascent strand occurs and the inherent 5′ to 3′ exonuclease activity of Taq polymerase cleaves and displaces the 6-FAM-labeled probe in a 5′ to 3′ direction, releasing the 6-FAM fluorophore from its proximity to the three quenchers. This displacement effectively disrupts the Förster resonance energy transfer (FRET) and the resulting fluorescence detected upon excitation is directly proportional to the amount of the dUTP available in the assay for incorporation. […]

Chain of recombinant human deoxyuridine nucleotidohydrolase (dUTPase) (P33316 other isoform, or with tags, fused parts or gaps): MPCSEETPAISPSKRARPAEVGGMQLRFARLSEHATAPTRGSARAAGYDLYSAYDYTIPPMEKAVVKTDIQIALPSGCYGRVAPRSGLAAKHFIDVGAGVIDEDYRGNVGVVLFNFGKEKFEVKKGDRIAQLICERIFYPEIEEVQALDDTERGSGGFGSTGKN

Compound	IC50 [µM]	% relative inhibition vs. positive control [%]
C[C@@H](NS(=O)(=O)CCCCCN1CC(=O)NC1=O)c1ccc(F)c(OC[C@@H]2CCCN2C)c1 [Example 91, 5-(2,4-dioxoimidazolidin-1-yl)-N—((R)-1-(4-fluoro-3-(((S)-1-methylpyrrolidin-2-yl)methoxy)phenyl)ethyl)pentane-1-sulfonamide]	150	1
C[C@H](c1ccc(F)c(OCC2CC2)c1)N(C)S(=O)(=O)CCCCCN1CC(=O)NC1=O [Example 92, (R)—N-(1-(3-(cyclopropylmethoxy)-4-fluorophenyl)ethyl)-5-(2,4-dioxoimidazolidin-1-yl)-N-methylpentane-1-sulfonamide]	6.25	12
C[C@@H](NS(=O)(=O)CCCCCN1CC(=O)N(C(=O)OC(C)(C)C)C1=O)c1ccc(F)c(OCC2CC2)c1 [Example 93]	3.75	20
C[C@@H](NS(=O)(=O)CCCCCN1CC(=O)NC1=O)c1ccc(F)c(OS(=O)(=O)C(F)(F)F)c1 [Example 94, (R)-5-(1-((5-(2,4-dioxoimidazolidin-1-yl)pentyl)sulfonamido)ethyl)-2-fluorophenyl trifluoromethanesulfonate]	150	1
C[C@@H](NS(=O)(=O)CCCCCN1CC(=O)N(COCC[Si](C)(C)C)C1=O)c1ccc(F)c(OCC2CC2)c1 [Example 95, (R)—N-(1-(3-(cyclopropylmethoxy)-4-fluorophenyl)ethyl)-5-(2,4-dioxo-3-((2-(trimethylsilyl)ethoxy)methyl)-imidazolidin-1-yl)pentane-1-sulfonamide]	> 25	0
C[C@@H](NS(=O)(=O)CCCCCN1CC(=O)NC1=O)c1ccc(F)c(OCC(=O)O)c1 [Example 101, (R)-2-(5-(1-((5-(2,4-dioxoimidazolidin-1-yl)pentyl)sulfonamido)ethyl)-2-fluorophenoxy)acetic acid]	20	4
O=C1CN(CCCCCS(=O)(=O)NC(c2ccc(F)c(OCC3CC3)c2)C2CC2)C(=O)N1 (centres unmarked) [Example 104, N-(cyclopropyl (3-(cyclopropylmethoxy)-4-fluorophenyl)methyl)-5-(2,4-dioxoimidazolidin-1-yl) pentane-1-sulfonamide]		57
O=C1CN(CCCCCS(=O)(=O)NC2CCc3c2ccc(F)c3OCC2CC2)C(=O)N1 (centres unmarked) [Example 105, N-(4-(cyclopropylmethoxy)-5-fluoro-2,3-dihydro-1H-inden-1-yl)-5-(2,4-dioxoimidazolidin-1-yl) pentane-1-sulfonamide]		36
CC(C)COc1cc([C@@H](C)NS(=O)(=O)CCC=CCN2C(=O)NC(=O)C2(C)C)ccc1F [Example 113, (R)-5-(5,5-dimethyl-2,4-dioxoimidazolidin-1-yl)-N-(1-(4-fluoro-3-isobutoxyphenyl)ethyl)pent-3-ene-1-sulfonamide]		8
CC(C)COc1cc([C@@H](C)NS(=O)(=O)CCCOCN2CC(=O)NC2=O)ccc1F [Example 116, (R)-3-((2,4-dioxoimidazolidin-1-yl)methoxy)-N-(1-(4-fluoro-3-isobutoxyphenyl)ethyl)propane-1-sulfonamide]		173
CC1(C)C(=O)NC(=O)N1C/C=C/CCS(=O)(=O)NC1(c2ccc(F)c(OCC(F)F)c2)CC1 [compound 121, (E)-N-(1-(3-(2,2-difluoroethoxy)-4-fluorophenyl)cyclopropyl)-5-(5,5-dimethyl-2,4-dioxoimidazolidin-1-yl)pent-3-ene-1-sulfonamide]		21

Second part, the compound after the results:

IC50 [µM]	% relative inhibition vs. positive control [%]	Compound
4	19	C[C@@H](NS(=O)(=O)CCCCCN1CC(=O)NC1=O)c1ccc(F)c(NCC2CC2)c1 [Example 96, (R)—N-(1-(3-((cyclopropylmethyl)amino)-4-fluorophenyl)ethyl)-5-(2,4-dioxoimidazolidin-1-yl)pentane-1-sulfonamide]
	182	[2H]C([2H])(Oc1cc([C@@H](C)NS(=O)(=O)CCCCCN2CC(=O)NC2=O)ccc1F)C1CC1 [Example 97, (R)—N-(1-(3-(cyclopropylmethoxy-d2)-4-fluorophenyl)ethyl)-5-(2,4-dioxoimidazolidin-1-yl)pentane-1-sulfonamide]
3	25	C[C@@H](NS(=O)(=O)CCCCCN1CC(=O)NC1=O)c1ccc(F)c(OC2CCOCC2)c1 [Example 98, (R)-5-(2,4-dioxoimidazolidin-1-yl)-N-(1-(4-fluoro-3-((tetrahydro-2H-pyran-4-yl)oxy)phenyl)ethyl)pentane-1-sulfonamide]
1.25	60	C[C@@H](NS(=O)(=O)CCCCCN1CC(=O)NC1=O)c1ccc(F)c(Oc2ccccc2)c1 [Example 99, (R)-5-(2,4-dioxoimidazolidin-1-yl)-N-(1-(4-fluoro-3-phenoxyphenyl)ethyl)pentane-1-sulfonamide]
14	5	C[C@@H](NS(=O)(=O)CCCCCN1CC(=O)NC1=O)c1ccc(F)c(OCC2CCOCC2)c1 [Example 100, (R)-5-(2,4-dioxoimidazolidin-1-yl)-N-(1-(4-fluoro-3-((tetrahydro-2H-pyran-4-yl)methoxy)phenyl)ethyl) pentane-1-sulfonamide]
> 25	0	C[C@@H](NS(=O)(=O)CCCCCN1CC(=O)NC1=O)c1ccc(F)c(OCc2nn[nH]n2)c1 [Example 102, (R)—N-(1-(3-((2H-tetrazol-5-yl)methoxy)-4-fluorophenyl)ethyl)-5-(2,4-dioxoimidazolidin-1-yl)pentane-1-sulfonamide]
	27	CC(C)C(NS(=O)(=O)CCCCCN1CC(=O)NC1=O)c1ccc(F)c(OCC2CC2)c1 (centres unmarked) [Example 103, N-(1-(3-(cyclopropylmethoxy)-4-fluorophenyl)-2-methylpropyl)-5-(2,4-dioxoimidazolidin-1-yl)pentane-1-sulfonamide]
150	1	C[C@@H](NS(=O)(=O)CCn1ccc(N2CC(=O)NC2=O)n1)c1ccc(F)c(OCC2CC2)c1 [Example 106, (R)—N-(1-(3-(cyclopropylmethoxy)-4-fluorophenyl)ethyl)-2-(3-(2,4-dioxoimidazolidin-1-yl)-1H-pyrazol-1-yl)ethane-1-sulfonamide]
	50	C[C@@H](NS(=O)(=O)CC/C=C/CN1C(=O)NC(=O)C1(C)C)c1ccc(F)c(OCC2CC2)c1 [Example 112, (R,E)-N-(1-(3-(cyclopropylmethoxy)-4-fluorophenyl)ethyl)-5-(5,5-dimethyl-2,4-dioxoimidazolidin-1-yl)pent-3-ene-1-sulfonamide]
	124	C[C@@H](NS(=O)(=O)CCOCCN1CC(=O)NC1=O)c1cccc(OCC2CC2)c1 [Example 114, (R)—N-(1-(3-(cyclopropylmethoxy)phenyl)ethyl)-2-(2-(2,4-dioxoimidazolidin-1-yl)ethoxy)ethane-1-sulfonamide]
	164	C[C@@H](NS(=O)(=O)CCCOCN1CC(=O)NC1=O)c1cccc(OCC2CC2)c1 [Example 115, (R)—N-(1-(3-(cyclopropylmethoxy)phenyl)ethyl)-3-((2,4-dioxoimidazolidin-1-yl)methoxy)propane-1-sulfonamide]
	172	O=C1CN(COCCCS(=O)(=O)NC2(c3ccc(F)c(OCC4CC4)c3)CC2)C(=O)N1 [compound 120, N-(1-(3-(cyclopropylmethoxy)-4-fluorophenyl)cyclopropyl)-3-((2,4-dioxoimidazolidin-1-yl)methoxy)propane-1-sulfonamide]
